Laboratory results: patent publication US12083084B2, “Method for enhancing energy production and metabolism in cells” (REPLICON HEALTH OY, priority 2013, dated 2024)
“Also recorded” adds a separate entry of the source. Marks after values point to notes of the source that are not given here.

How the values were obtained:
400 m running experiment = assay type: in vivo, human
Protocol: Two healthy male volunteers S1 and S3 from Example 2.1 participated in 400 m running experiment with 4 day administration of DGAcs and without it. The experiments were done at 2-3 pm in the afternoon. In DGA experiment additional dose of DGAcs (5 mg/kg) was taken before lunch at 11 am, and lunch was eaten at 12 am. […] The length of the 400 m exercise at full speed was too much especially for S1. […] This difference was striking especially for S3 and can be as a result in decreased acidosis.

[1] = Glucose tolerance test, plasma glucose and insulin; assay type: in vivo, human; conditions: 4.5 day experiment
Protocol: In the 4.5 day experiment also standard, fasting glucose tolerance test was conducted for S1 and S9 starting after 2.5 hours of last administration of DGAcs. Blood glucose levels were measured at 0 h, 60 min and 120 minutes.

[2] = Extended 8 week administration and 2 week control period for S4 (Example 2.2); assay type: in vivo, human; conditions: for AST/ALT / S-Bil / S-Uraat / fS-Fe / fS-Trigly: fasting blood
Protocol: For Subject 4 (S4) in Example 2.1, the 4 day test period was prolonged by 8 weeks with reduced, only once a day 5 mg/kg/day administration before going to bed. Additionally in order to have an understanding that the results in the 8 week test were due to the administration of the Innovation, an additional negative control measurement without DGAcs after 2 weeks and 2 days was made (+2 days due to alleviating doses see below). The idea was to see, if the beneficial effects seen in 4 day treatment prevailed in longer term (positive control).

[3] = Rate of ethanol oxidation in rats; assay type: in vivo, rat; conditions: AA rats given ethanol (1.2 per mille), not statistically significant
Text: (§1) In this experiment nutrition intake, except of course for DGAcs, was controlled to be exactly the same during the experimental day, and three day before the experiment. For AA rats, that are used to alcohol but didn't receive any alcohol in 3 day before the experiment, catabolic redox-activity in the cytosol was controlled by giving rats ethanol (equaling 1.2 per mille blood alcohol concentration, which represents only mild alcohol intoxication to the AA rats). The rate of ethanol oxidation remained the same in all groups.
Experimental session started at 8:00 to 9:00 am. To diminish possible pain during the experiments, all animals were injected subcutaneously with buprenorphine (0.01 mg/kg) a few minutes before the blood samples. During the experimental session no difference in other metabolic activity, e.g. rate of ethanol oxidation, between the control and treatment group was detected from blood samples. […] The resulting supernatants were used for free glycerol measurement with an enzymatic end point commercial assay kit (Boehringer-Mannheim, R-Biopharm, Darmstadt, Germany) according to the manufacturer's protocol except that the assays were modified for use with small volumes of supernatant using a 96-well microplate reader (Labsystems Multiskan RS, Helsinki, Finland). […]

rat cortical neurons = experiment: LDH viability/cytotoxicity of rat cortical neurons (calorie restriction, high doses); assay type: cell-based
Protocol: Cell culture. Cortical neurons were dissected from P1 rats and cultured in 96-well plates up to 7 days in the medium containing: neurobasal medium, 1.5% B27 supplement, 1 mM L-glutamine, penicillin/streptomycin.
Treatment of cells with DGAcs was done in two different ways. In all studies the total cultivation time was 7 days (7th day in vitro=7 DIV). In the first study a clear element of calorie restriction (CR) was built in to the standard model provided by the CRO. The other 24 hour pretreatment was without CR (more info in examples 2.1 and 2.2 below). Separately also exceptionally high doses of DGAcs were administered to neurons. […] (Effective dose was […]).
Cell Viability/Cytotoxicity. Cell Viability was Detected by LDH Tests Like in Examples 1.1-1.2.
Cell treatment: concentration of DGAcs (10, 50 and 100 μg/ml) was added into cell culture medium at 4 DIV. After 24 h (at 5 DIV) 25% of medium was changed to fresh containing 1.5× concentration of DGAcs. Same treatment (change 25% with 1.5× concentration) was repeated at 6 DIV. The cells were transferred into Mg^2+-free Locke's buffer containing the same concentrations of DGAcs immediately before imaging experiments (at 7 DIV). For controls the same amount of medium was changed without addition of DGAcs.
Cell treatment according to the protocol renewed only 25% of the medium during 5 DIV and 6 DIV, meaning that neurons received only very small amounts of new nutrition, i.e. experienced calorie restrictions (CR). […] This same phenomenon of increased cell death in CR was already seen with human hepatocytes in previous examples. Likely explanation is the same: DGAcs administration increases metabolic activity in neurons and/or their (aerobic) ATP production and consumption, which leads to enhanced cell cycle control and programmed cell death (apoptosis) in nutritional scarcity. […] Viability loss compared to zero control was highest and statistically significant in 10 μg/ml group but also all other groups experienced loss of viability.

[4] = Hepatic free glycerol after 3 week feeding; assay type: in vivo, rat
Text: From the above experiment altogether 12 rats were chosen from 0.1 g/kg/day DGAcs group (N=6) and zero control (N=6) for a measurement of free glycerol from liver samples. Liver samples contained also blood entering the liver from other tissues, thus on top of hepatic tissues the samples reflect also the metabolic situation in other tissues of the body than just the liver.
as §1
Experimental session started at 8:00 to 9:00 am. To diminish possible pain during the experiments, all animals were injected subcutaneously with buprenorphine (0.01 mg/kg) a few minutes before the blood samples. During the experimental session no difference in other metabolic activity, e.g. rate of ethanol oxidation, between the control and treatment group was detected from blood samples. Immediately after the last blood sample, the animals were anesthetized with pentobarbital (40 mg/kg IP, 1% [wt/vol] in saline). Thereafter (5-10 minutes), liver pieces were quickly (within 2-4 seconds) excised and freeze-clamped. Liver samples were stored at […] until glycerol determination. […] The resulting supernatants were used for free glycerol measurement with an enzymatic end point commercial assay kit (Boehringer-Mannheim, R-Biopharm, Darmstadt, Germany) according to the manufacturer's protocol except that the assays were modified for use with small volumes of supernatant using a 96-well microplate reader (Labsystems Multiskan RS, Helsinki, Finland). […]

[5] = S4, +2 weeks follow up after stopping DGAcs (negative control), change from previous observation (+8 weeks)
[6] = S4, +2 weeks follow up after stopping DGAcs (negative control)
[7] = S4, +8 weeks 5 mg/kg once a day (positive control), change from previous observation (4 day)
[8] = S4, +8 weeks 5 mg/kg once a day (positive control)

## O=C(O)[C@H](O)CO [DGA, D-glyceric acid]
400 m running experiment; S1 and S3, qualitative
  readiness to resume other physical exercise after 400 m run: much more ready to resume other physical exercise
400 m running experiment; S3, 4 day administration + 5 mg/kg before lunch
  400 m running times, control vs DGA: no significant differences

## O.O.O=C([O-])[C@H](O)CO.O=C([O-])[C@H](O)CO.[Ca+2] [DGAcs, D-glyceric acid, calcium salt dehydrate]
[1]; S1 (starting level 5.0 mmol/L), 75 g glucose
  drop of blood glucose at 120 min: marginal
[1]; S9 (fasting blood glucose 6.0 mmol/L), 75 g glucose
  blood glucose lower at 120 min compared to the control: ~0.6 mmol/L
[1]; S9, 75 g glucose
  blood insulin level at 60 minutes: higher insulin level
[2]; [5]
  S-Asat, change: 24.1%
  S-Bil, change: 41.7%
  S-Uraat, change: 19.4%
  S-alat, change: −35.1%
  fS-Fe, change: −3.2%
  fS-Trigly, change: −17.8%
[2]; [6]
  AST/ALT: 1.44
  S-Bil: 10.2
  S-Uraat: 295
  fS-Fe: 15.1
  fS-Trigly: 1.11
[2]; [7]
  S-Asat, change: 31.8%
  S-Bil, change: −25.8%
  S-Uraat, change: 0.4%
  S-alat, change: 85.0%
  fS-Fe, change: −22.8%
  fS-Trigly, change: −22.0%
[2]; [8]
  AST/ALT: 0.78
  S-Bil: 7.2
  S-Uraat: 247
  fS-Fe: 15.6
  fS-Trigly: 1.35
[2]; S4, after 8 weeks of 5 mg/kg/day
  time without dose until withdrawal symptoms started: 36 h
[2]; S4, after 8 weeks of 5 mg/kg/day, bad feeling inside the head, dizziness, uneasiness
  withdrawal symptoms after stopping administration: very clear but not severe
[3]
  rate of ethanol oxidation, maximum acceleration compared to control: ~3.6%
Rat cortical neurons; 10, 50 and 100 μg/ml from 4 DIV, only 25% of medium renewed at 5 and 6 DIV, FIG. 13
  neuronal viability (LDH) under calorie restriction vs zero control: dose dependent viability loss; also recorded: confirmed statistically significantly
Rat cortical neurons; 40-200 times the effective treatment dose
  toxicity to neurons: No toxicity was observed
Rat cortical neurons; rat cortical neurons
  Effective dose: 10-50 μg/m
[4]; 0.1 g/kg group
  glycerol levels increased compared to the control: 59%
  increase in the concentration of free glycerol compared to the control samples: roughly 0.17 g/kg
[4]; 0.1 g/kg per day in diet for 3 weeks, AA rats, n = 6, no acute dose
  Free glycerol concentration (hepatic, including extracellular matrix): 4.88 +/− 1.21 (6) * Micromoles Per Gram Wet Weight Tissue
